According to ChEMBL document CHEMBL4806965, “Nek6 kinase inhibitors useful for the treatment of solid tumors” (2019):

How the values were obtained:
[1] = test system: PEO1; experiment: Cytotoxicity against human PEO1 cells assessed as inhibition of cell growth after 72 hrs by ATPlite assay; type: functional, cell-based; details: PEO1, 72 h
[2] = test system: PEO1; experiment: Synergistic cytotoxicity against human PEO1 cells assessed as combination index at 44 uM after 72 hrs in presence of 10 uM of paclitaxel by ATPlite assay; type: functional
[3] = test system: PEO1; experiment: Synergistic cytotoxicity against human PEO1 cells assessed as combination index at 44 uM after 72 hrs in presence of 10 uM of cisplatin by ATPlite assay; type: functional
[4] = test system: PEO1; experiment: Synergistic cytotoxicity against human PEO1 cells assessed as combination index at 44 uM after 72 hrs in presence of 100 uM of paclitaxel by ATPlite assay; type: functional
[5] = test system: PEO1; experiment: Synergistic cytotoxicity against human PEO1 cells assessed as combination index at 44 uM after 72 hrs in presence of 1 uM of paclitaxel by ATPlite assay; type: functional
[6] = test system: PEO1; experiment: Synergistic cytotoxicity against human PEO1 cells assessed as combination index at 44 uM after 72 hrs in presence of 2 uM of cisplatin by ATPlite assay; type: functional
[7] = test system: PEO1; experiment: Synergistic cytotoxicity against human PEO1 cells assessed as combination index at 44 uM after 72 hrs in presence of 5 uM of cisplatin by ATPlite assay; type: functional
[8] = test system: PEO1; experiment: Synergistic cytotoxicity against human PEO1 cells assessed as combination index at 44 uM after 72 hrs in presence of 10000 uM of paclitaxel by ATPlite assay; type: functional
[9] = test system: PEO1; experiment: Synergistic cytotoxicity against human PEO1 cells assessed as combination index at 44 uM after 72 hrs in presence of 1000 uM of paclitaxel by ATPlite assay; type: functional
[10] = test system: PEO1; experiment: Synergistic cytotoxicity against human PEO1 cells assessed as combination index at 44 uM after 72 hrs in presence of 0.1 uM of cisplatin by ATPlite assay; type: functional
[11] = test system: PEO1; experiment: Synergistic cytotoxicity against human PEO1 cells assessed as combination index at 44 uM after 72 hrs in presence of 1 uM of cisplatin by ATPlite assay; type: functional

In the case of `CC1=C(C#N)C(O)=NC(=O)/C1=C\c1ccc(-c2ccccc2)o1`, the IC50 [1] is reported as 44 µM, the CI [2] is reported as 1.05 and the CI [3] is reported as 0.69. For the same compound, the CI [4] was 4.68, the CI [5] was 0.87 and the CI [6] was 1.01. For the same compound, the CI [7] was 1.03, the CI [8] was 287.79 and the CI [9] was 29.58. It also gave a CI [10] of 0.81 and a CI [11] of 1.08.

Compound `CC(=O)O[C@H]1C(=O)[C@@]2(C)[C@H]([C@H](OC(=O)c3ccccc3)[C@]3(O)C[C@H](OC(=O)[C@H](O)[C@@H](NC(=O)c4ccccc4)c4ccccc4)C(C)=C1C3(C)C)[C@]1(OC(C)=O)CO[C@@H]1C[C@@H]2O` [PACLITAXEL] has an IC50 [1] of 7 µM.
